# Assay results: ChEMBL document CHEMBL4251603, “Structure-activity studies on N-Substituted tranylcypromine derivatives lead to selective inhibitors of lysine specific demethylase 1 (LSD1) and potent inducers of leukemic cell differentiation” (Eur J Med Chem, 2018)
# The source made the active and inactive calls. No cut-off for these calls is given here.
# Assays:
# [1] = target: T1, Amine oxidase [flavin-containing] B (Homo sapiens, UniProt P27338); assay: (§1) Inhibition of MAO-B (unknown origin) at 10 uM using beetle luciferin derived luminogenic substrate preincubated for 15 mins followed by substrate addition measured after 60 mins by MAO-Glo assay relative to control; conditions: 1 h, 10 µM
# T1 sequence (P27338 whole entry): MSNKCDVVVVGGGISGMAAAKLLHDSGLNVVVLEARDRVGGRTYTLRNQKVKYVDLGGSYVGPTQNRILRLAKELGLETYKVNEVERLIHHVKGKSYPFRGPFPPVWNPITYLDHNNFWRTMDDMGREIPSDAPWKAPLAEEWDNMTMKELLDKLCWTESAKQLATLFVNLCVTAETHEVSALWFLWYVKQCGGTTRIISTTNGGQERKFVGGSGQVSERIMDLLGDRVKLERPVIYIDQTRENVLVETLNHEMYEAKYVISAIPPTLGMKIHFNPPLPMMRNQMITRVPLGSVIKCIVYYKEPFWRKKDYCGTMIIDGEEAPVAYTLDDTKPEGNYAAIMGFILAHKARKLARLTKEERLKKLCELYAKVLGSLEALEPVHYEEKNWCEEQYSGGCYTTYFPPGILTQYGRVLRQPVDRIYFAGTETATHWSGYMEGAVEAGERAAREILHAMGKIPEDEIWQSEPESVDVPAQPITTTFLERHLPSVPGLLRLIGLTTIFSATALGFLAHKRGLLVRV
# MAO-A [2] = target: T2, MAO-A (Homo sapiens, UniProt P21397); assay: in vitro; conditions: MAO-A enzyme (unknown origin), probe beetle luciferin derived luminogenic substrate
# T2 sequence (P21397 whole entry): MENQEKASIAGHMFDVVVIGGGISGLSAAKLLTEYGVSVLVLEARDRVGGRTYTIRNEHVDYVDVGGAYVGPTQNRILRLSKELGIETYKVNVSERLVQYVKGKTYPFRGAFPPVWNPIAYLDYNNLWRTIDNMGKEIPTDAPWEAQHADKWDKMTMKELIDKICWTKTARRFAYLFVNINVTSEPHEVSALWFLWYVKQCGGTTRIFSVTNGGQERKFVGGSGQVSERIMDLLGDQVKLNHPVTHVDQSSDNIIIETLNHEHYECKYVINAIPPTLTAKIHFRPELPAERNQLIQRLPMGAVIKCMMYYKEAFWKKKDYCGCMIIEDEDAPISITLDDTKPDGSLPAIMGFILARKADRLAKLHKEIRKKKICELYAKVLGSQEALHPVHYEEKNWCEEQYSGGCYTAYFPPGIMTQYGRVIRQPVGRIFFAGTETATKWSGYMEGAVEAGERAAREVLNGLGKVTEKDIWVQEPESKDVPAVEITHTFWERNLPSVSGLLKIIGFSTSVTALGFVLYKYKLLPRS
# MAO-A [3] = target: T2, MAO-A; assay: Inhibition of MAO-A (unknown origin) at 1 uM using beetle luciferin derived luminogenic substrate preincubated for 15 mins followed by substrate addition measured after 60 mins by MAO-Glo assay relative to control; conditions: MAO-A enzyme (unknown origin), probe beetle luciferin derived luminogenic substrate
# [4] = target: T1, Amine oxidase [flavin-containing] B; assay: Inhibition of MAO-B (unknown origin) using beetle luciferin derived luminogenic substrate preincubated for 15 mins followed by substrate addition measured after 60 mins by MAO-Glo assay
# [5] = target: T3, Lysine-specific histone demethylase 1A (Homo sapiens, UniProt O60341); conditions: 100 uM
# [6] = target: T4, Amine oxidase [flavin-containing] A (Homo sapiens, UniProt P21397)
# T4 sequence (P21397 whole entry): T2 sequence (P21397 whole entry)
# MAO-B [7] = target: T5, MAO-B (Homo sapiens, UniProt P27338); assay: in vitro; conditions: MAO-B enzyme (unknown origin), probe beetle luciferin derived luminogenic substrate
# T5 sequence (P27338 whole entry): T1 sequence (P27338 whole entry)
# MAO-B [8] = target: T5, MAO-B; assay: as §1; conditions: MAO-B enzyme (unknown origin), probe beetle luciferin derived luminogenic substrate
# THP-1 [9] = assay: Inhibition of colony formation in human THP1 cells at 0.5 uM after […] by light microscopic method relative to control; assay type: functional
# [10] = target: Lysine-specific histone demethylase 1A (Mus musculus) (UniProt Q6ZQ88); assay: Inhibition of LSD1 in mouse Hoxa9/Meis1 transformed progenitor cells assessed as reduction in c-Kit positive cells at 100 nM after 96 hrs by flow cytometry; assay type: cell-based
# [11] = target: Lysine-specific histone demethylase 1A (Mus musculus) (UniProt Q6ZQ88); assay: Inhibition of LSD1 in mouse Hoxa9/Meis1 transformed progenitor cells assessed as induction of granulocytic differentiation at 50 to 100 nM up to 96 hrs by pappenheim staining based assay
# [12] = target: T3, Lysine-specific histone demethylase 1A
# [13] = target: T3, Lysine-specific histone demethylase 1A; remark: listed apart in the source
# THP-1 [14] = assay: Inhibition of colony formation in human THP1 cells at 0.5 to 50 uM after […] by light microscopic method; assay type: functional, cell-based
# [15] = target: T3, Lysine-specific histone demethylase 1A; conditions: 10 uM
# MAO-B [16] = target: T5, MAO-B; assay: Inhibition of MAO-B (unknown origin) at 250 uM using beetle luciferin derived luminogenic substrate preincubated for 15 mins followed by substrate addition measured after 60 mins by MAO-Glo assay relative to control; conditions: MAO-B enzyme (unknown origin), probe beetle luciferin derived luminogenic substrate
structure (smiles),measurement,setting,value
COc1ncccc1CN[C@H]1C[C@@H]1c1ccccc1,inhibition (INH),[1],Not Active
COc1cccc(CN[C@H]2C[C@@H]2c2ccccc2)c1 (relative stereo),"inhibition at 1 h, 10 µM",MAO-A [2],79%
same,inhibition (INH),[1],Not Active
Cc1ccc(CN[C@H]2C[C@@H]2c2ccccc2)cc1Cl (relative stereo),"inhibition at 1 h, 1 µM",MAO-A [3],69%
Fc1ccc(CN[C@H]2C[C@@H]2c2ccccc2)cc1 (relative stereo),"inhibition at 1 h, 1 µM",MAO-A [3],27%
C[C@@H]1[C@H](NCc2ccc(Cl)cc2Cl)[C@H]1c1ccccc1 (relative stereo),IC50,[4],56.2 µM
same,inhibition,[5],inactive
same,IC50,[6],0.78 µM
O=[N+]([O-])c1ccccc1CN[C@H]1C[C@@H]1c1ccccc1 (relative stereo),"inhibition at 1 h, 1 µM",MAO-B [7],15%
same,"inhibition at 1 h, 1 µM",MAO-A [3],18%
Clc1ccccc1CN[C@H]1C[C@@H]1c1ccccc1 (relative stereo),"inhibition at 1 h, 10 µM",MAO-A [2],62%
same,"inhibition at 1 h, 10 µM",MAO-B [8],21%
Fc1cc(Br)ccc1CN[C@H]1C[C@@H]1c1ccccc1 (relative stereo),"inhibition at 1 h, 1 µM",MAO-A [3],27%
Brc1ccc(COc2ccc(CN[C@H]3C[C@@H]3c3ccccc3)cc2)cc1 (relative stereo),"inhibition at 1 h, 1 µM",MAO-B [7],44%
same,"inhibition at 1 h, 1 µM",MAO-A [3],100%
C[C@@H]1[C@@H](N)[C@H]1c1ccccc1.Cl (relative stereo),inhibition,[5],inactive
same,inhibition (INH),[1],Not Active
O=[N+]([O-])c1cccc(CN[C@H]2C[C@@H]2c2ccccc2)c1 (relative stereo),inhibition at 0.5 µM,THP-1 [9],80%
same,IC50,[4],1.4 µM
same,inhibition,[10],Active
same,inhibition,[11],Active
same,IC50,[6],0.488 µM
CC(=O)Nc1ccc(CN[C@H]2C[C@@H]2c2ccccc2)cc1 (relative stereo),"inhibition at 1 h, 10 µM",MAO-A [2],48%
same,"inhibition at 1 h, 10 µM",MAO-B [8],17%
c1ccc(COc2ccc(CN[C@H]3C[C@@H]3c3ccccc3)cc2)cc1 (relative stereo),"inhibition at 1 h, 1 µM",MAO-B [7],52%
same,"inhibition at 1 h, 1 µM",MAO-A [3],93%
O=[N+]([O-])c1ccc(N[C@H]2C[C@@H]2c2ccccc2)s1 (relative stereo),"inhibition at 1 h, 1 µM",MAO-B [7],79%
same,"inhibition at 1 h, 1 µM",MAO-A [3],94%
Clc1cc(Cl)cc(CN[C@H]2C[C@@H]2c2ccccc2)c1 (relative stereo),"inhibition at 1 h, 1 µM",MAO-B [7],17%
same,"inhibition at 1 h, 1 µM",MAO-A [3],30%
Ic1ccccc1CN[C@H]1C[C@@H]1c1ccccc1 (relative stereo),"inhibition at 1 h, 1 µM",MAO-B [7],16%
same,"inhibition at 1 h, 1 µM",MAO-A [3],12%
COc1ncccc1CN[C@H]1[C@@H](C)[C@@H]1c1ccccc1 (relative stereo),IC50,[12],Not Active
same,"inhibition at 1 h, 10 µM",MAO-B [8],14%
same,IC50,[6],41.4 µM
Brc1cccc(CN[C@H]2C[C@@H]2c2ccccc2)c1 (relative stereo),"inhibition at 1 h, 1 µM",MAO-A [3],38%
Brc1ccc(COc2cccc(CN[C@H]3C[C@@H]3c3ccccc3)c2)cc1 (relative stereo),"inhibition at 1 h, 1 µM",MAO-B [7],32%
same,"inhibition at 1 h, 1 µM",MAO-A [3],100%
COc1ccccc1CN[C@H]1[C@@H](C)[C@@H]1c1ccccc1 (relative stereo),IC50,[12],Not Active
same,"inhibition at 1 h, 10 µM",MAO-A [2],32%
same,inhibition (INH),[1],Not Active
c1ccc(-c2ccc(CN[C@H]3C[C@@H]3c3ccccc3)cc2)cc1 (relative stereo),"inhibition at 1 h, 1 µM",MAO-B [7],82%
same,"inhibition at 1 h, 1 µM",MAO-A [3],93%
CC(C)(C)c1ccc(CN[C@H]2C[C@@H]2c2ccccc2)cc1 (relative stereo),"inhibition at 1 h, 1 µM",MAO-B [7],27%
same,"inhibition at 1 h, 1 µM",MAO-A [3],22%
COc1ccccc1CN[C@H]1C[C@@H]1c1ccccc1 (relative stereo),"inhibition at 1 h, 10 µM",MAO-B [8],36%
O=[N+]([O-])c1cc(CN[C@H]2C[C@@H]2c2ccccc2)ccc1Cl (relative stereo),"inhibition at 1 h, 10 µM",MAO-A [2],100%
same,"inhibition at 1 h, 10 µM",MAO-B [8],13%
COc1ccc(CN[C@H]2C[C@@H]2c2ccccc2)cc1OC (relative stereo),"inhibition at 1 h, 10 µM",MAO-A [2],69%
same,inhibition (INH),[1],Not Active
Fc1ccc(CN[C@H]2C[C@@H]2c2ccccc2)cc1F (relative stereo),"inhibition at 1 h, 1 µM",MAO-A [3],43%
Fc1ccccc1CN[C@H]1C[C@@H]1c1ccccc1 (relative stereo),"inhibition at 1 h, 10 µM",MAO-A [2],20%
same,"inhibition at 1 h, 10 µM",MAO-B [8],16%
NC(=O)c1cccc(CN[C@H]2C[C@@H]2c2ccccc2)c1 (relative stereo),IC50,[4],95.7 µM
same,IC50,[6],27.9 µM
c1ccc(COc2cccc(CN[C@H]3C[C@@H]3c3ccccc3)c2)cc1 (relative stereo),"inhibition at 1 h, 1 µM",MAO-B [7],23%
same,"inhibition at 1 h, 1 µM",MAO-A [3],60%
CCc1ccc(CN[C@H]2C[C@@H]2c2ccccc2)cc1 (relative stereo),"inhibition at 1 h, 1 µM",MAO-B [7],12%
same,"inhibition at 1 h, 1 µM",MAO-A [3],33%
COc1ccc(CN[C@H]2C[C@@H]2c2ccccc2)cc1 (relative stereo),"inhibition at 1 h, 1 µM",MAO-A [3],30%
Clc1ccc(CN[C@H]2C[C@@H]2c2ccccc2)cc1 (relative stereo),inhibition at 0.5 µM,THP-1 [9],80%
same,IC50,[4],14.1 µM
same,inhibition,[10],Active
same,inhibition,[11],Active
same,IC50,[6],0.206 µM
Brc1ccc(CN[C@H]2C[C@@H]2c2ccccc2)cc1 (relative stereo),"inhibition at 1 h, 10 µM",MAO-A [2],43%
same,"inhibition at 1 h, 10 µM",MAO-B [8],27%
Clc1ccc(CN[C@H]2C[C@@H]2c2ccccc2)c(Cl)c1 (relative stereo),"inhibition at 1 h, 10 µM",MAO-A [2],73%
same,"inhibition at 1 h, 10 µM",MAO-B [8],11%
C[C@@H]1[C@H](N)[C@H]1c1ccccc1.Cl (relative stereo),inhibition,[5],inactive
same,inhibition (INH),[1],Not Active
C[C@@H]1[C@H](NCc2ccc(Cl)cc2)[C@H]1c1ccccc1 (relative stereo),Tm,[13],47.9 °C
same,IC50,[4],10.5 µM
same,inhibition,THP-1 [14],inactive
same,inhibition,[15],inactive
same,IC50,[6],0.31 µM
c1ccc([C@H]2C[C@@H]2NCc2cccnc2)cc1 (relative stereo),inhibition (INH),[1],Not Active
c1ccc(-c2cccc(CN[C@H]3C[C@@H]3c3ccccc3)c2)cc1 (relative stereo),inhibition (INH),[1],Not Active
same,IC50,[6],0.161 µM
CN(C)c1ccc(CN[C@H]2C[C@@H]2c2ccccc2)cc1 (relative stereo),"inhibition at 1 h, 1 µM",MAO-A [3],30%
Cn1c(CN[C@H]2C[C@@H]2c2ccccc2)cc2ccccc21 (relative stereo),"inhibition at 1 h, 10 µM",MAO-A [2],54%
same,"inhibition at 1 h, 10 µM",MAO-B [8],14%
O=[N+]([O-])c1ccc(N[C@H]2C[C@@H]2c2ccccc2)o1 (relative stereo),"inhibition at 1 h, 1 µM",MAO-A [3],27%
Fc1cccc(CN[C@H]2C[C@@H]2c2ccccc2)c1 (relative stereo),"inhibition at 1 h, 10 µM",MAO-A [2],69%
same,"inhibition at 1 h, 10 µM",MAO-B [8],20%
Brc1ccccc1CN[C@H]1C[C@@H]1c1ccccc1 (relative stereo),"inhibition at 1 h, 10 µM",MAO-A [2],47%
same,"inhibition at 1 h, 10 µM",MAO-B [8],24%
C[C@H]1[C@@H](N)[C@H]1c1ccccc1.Cl (relative stereo),inhibition,[5],inactive
same,inhibition (INH),[1],Not Active
C[C@@H]1[C@H](NCc2cccc([N+](=O)[O-])c2)[C@H]1c1ccccc1 (relative stereo),Tm,[13],45.6 °C
same,IC50,[4],2.2 µM
same,inhibition,THP-1 [14],inactive
same,inhibition,[15],inactive
same,IC50,[6],0.237 µM
NC(=O)c1ccc(CN[C@H]2C[C@@H]2c2ccccc2)cc1 (relative stereo),"inhibition at 1 h, 250 µM",MAO-B [16],50%
same,IC50,[6],24.7 µM
c1ccc(CN[C@H]2C[C@@H]2c2ccccc2)cc1 (relative stereo),"inhibition at 1 h, 10 µM",MAO-B [8],33%
same,IC50,[6],5.7 µM
